For this experiment, the system named is HCC 1806 cells. The experiment can be described thus: Cell proliferation inhibitory effect on human breast cancer cell line (crystal violet, 72 hours). The following applies: Homo sapiens, HCC1806, 72 h, read-out: Cell growth suppression IC50. In kind it is cell-based. The protocol:
Human derived breast cancer cell line HCC 1806 cells were daily passaged at a cell density not exceeding 80% in ATCC recommended Roswell Park Memorial Institute medium (RPMI-1640) containing 10% fetal bovine serum (FBS). In order to start the test of cell proliferation inhibitory activity, HCC 1806 cells were suspended in the above medium, after seeing at 180 μL in each well of a 96-well flat bottom plate so that the number of cells per well was 2,000, the cells were cultured at 37° C. for 1 day in an incubator containing 5% carbon dioxide gas. On the next day, the test compound was dissolved in DMSO, and 20 μL of a drug additive solution diluted serially with distilled water to 10 times of the final concentration was added to each well of the culture plate of the cells, and the cells were cultured at 37° C. for 72 hours in an incubator containing 5% carbon dioxide gas. After culturing for 72 hours, 20 μL of glutaraldehyde was added to each well and allowed to stand for 30 minutes, then the plate was washed 10 times with water and was dried. 100 μL of a stain solution (0.05% crystal violet in a 20% methanol solution) was added to each well and allowed to stand for 30 minutes, then the plate was washed 10 times with water and was dried. 100 μL of an extract solution (0.1 N NaH2PO4: 100% ethanol=1:1) was added to each well and mixed, and the mixture was measured at a wavelength of 540 nm using a plate reader (MTP-450 manufactured by Corona Electric Co., Ltd.). The growth inhibition rate was calculated from the following formula, and the concentration (IC50 (μM)) of a test compound inhibiting 50% was determined. Growth inhibition rate (%)={(C−B)−(T−B)}/(C−B)×100
T: Absorbance of well to which test compound was added
C: Absorbance of wells to which no test compound was added
B: Absorbance of wells to which no cell suspension was added
For `Cc1ccc(F)c([C@@H](C)[C@H](NS(=O)(=O)c2ccc(Cl)c3c2OCCN3CC(F)F)c2n[nH]c(=O)o2)c1C` [Example 102, 5-chloro-4-(2,2-difluoroethyl)-N-((1S,2R)-2-(6-fluoro-2,3-dimethylphenyl)-1-(5-oxo-4,5-dihydro-1,3,4-oxadiazol-2-yl)propy1)-3,4-dihydro-2H-benzo[b][1,4]oxazine-8-sulfonamide], the IC50 stood at 660 nM. As for `CC(=O)OC1(C(F)(F)F)CCOc2c1cccc2S(=O)(=O)N[C@H](c1n[nH]c(=O)o1)[C@H](C)c1c(F)ccc(C)c1C` (stereo partly drawn) [Example 106, 8-(N-((1S,2R)-2-(6-fluoro-2,3-dimethylphenyl)-1-(5-oxo-4,5-dihydro-1,3,4-oxadiazol-2-yl)propyl)sulfamoyl)-4-(tifluoromethyl)chroman-4-yl acetate], the IC50 was 380 nM.

As to `COC(=O)c1nc(S(=O)(=O)N[C@H](c2n[nH]c(=O)o2)[C@H](C)c2c(F)ccc(C)c2C)ccc1Cl` [Example 109, methyl 3-chloro-6-(N-((1S,2R)-2-(6-fluoro-2,3-dimethylphenyl)-1-(5-oxo-4,5-dihydro-1,3,4-oxadiazol-2-yl)propyl)sulfamoyl)picolinate], the IC50 is 400 nM.

As for `Cc1ccc(F)c([C@@H](C)[C@H](NS(=O)(=O)c2ccc(Cl)c(C(=O)N3CCOCC3)n2)c2n[nH]c(=O)o2)c1C` [Example 113, 5-chloro-N-((1S,2R)-2-(6-fluoro-2,3-dimethylphenyl)-1-(5-oxo-4,5-dihydro-1,3,4-oxadiazol-2-yl)propyl)-6-(morpholine-4-carbonyl)pyridine-2-sulfonamide], the IC50 came out at 600 nM. On to `Cc1ccc(F)c([C@@H](C)[C@H](NS(=O)(=O)c2ccc(Cl)c(C(=O)N3CCCC3)n2)c2n[nH]c(=O)o2)c1C` [Example 114, 5-chloro-N-((1S,2R) 2-(6-fluoro-2,3-dimethylphenyl)-1-(5-oxo-4,5-dihydro-1,3,4-oxadiazol-2-yl)propyl)-6-(pyrrolidine-1-carbonyl)pyridine-2-sulfonamide], for which the half-inhibitory concentration (IC50) came out at 370 nM. `Cc1ccc(F)c([C@@H](C)[C@H](NS(=O)(=O)c2ccc(Cl)c(C(=O)N3C4CCC3COC4)n2)c2n[nH]c(=O)o2)c1C` [Example 116, 6-(3-oxa-8-azabicyclo[3.2.1]octane-8-carbonyl)-5-chloro-N-((1S,2R)-2-(6-fluoro-2,3-dimethylphenyl)-1-(5-oxo-4,5-dihydro-1,3,4-oxadiazol-2-yl)propyl)pyridine-2-sulfonamide]: the 50% inhibitory concentration (IC50) amounted to 320 nM. Take `Cc1ccc(F)c([C@@H](C)[C@H](NS(=O)(=O)c2ccc(Cl)c(C(=O)N3CC4CCC(C3)O4)n2)c2n[nH]c(=O)o2)c1C` [Example 117, 6-(8-oxa-3-azabicyclo[3.2.1]octane-3-carbonyl)-5-chloro-N-((1S,2R)-2-(6-fluoro-2,3-dimethylphenyl)-1-(5-oxo-4,5 dihydro-1,3,4-oxadiazol-2-yl)propyl)pyridine-2-sulfonamide]: the IC50 is 310 nM. The value for `CC(=O)OC1(C(F)(F)F)CCOc2c(S(=O)(=O)N[C@H](c3n[nH]c(=O)o3)[C@H](C)c3c(F)ccc(C)c3C)ccc(Cl)c21` (stereo partly drawn) [Example 123, 5-chloro-8-(N-((1S,2R)-2-(6-fluoro-2,3-dimethylphenyl)-1-(5-oxo-4,5-dihydro-1,3,4-oxadiazol-2-yl)propyl)sulfamoyl)-4-(trifluoromethyl)chroman-4-yl acetate] was 170 nM; that for `[2H]C([2H])([2H])C1(OC(C)=O)CCOc2c(S(=O)(=O)N[C@H](c3n[nH]c(=O)o3)[C@H](C)c3c(F)ccc(C)c3C)ccc(Cl)c21` (stereo partly drawn) [Example 129, 5-Chloro-8-(N-((1S,2R)-2-(6-fluoro-2,3-dimethylphenyl)-1-(5-oxo-4,5-dihydro-1,3,4-oxadiazol-2-yl)propyl)sulfamoyl)-4-methyl-d3-chroman-4-yl Acetate] was 80 nM; that for `COc1c(S(=O)(=O)N[C@H](c2n[nH]c(=O)o2)[C@H](C)c2c(F)ccc(C)c2C)ccc(Cl)c1C(C)OC(C)=O` (stereo partly drawn) [Example 144, 1-(6-chloro-3-(N-((1S,2R)-2-(6-fluoro-2,3-dimethylphenyl)-1-(5-oxo-4,5-dihydro-1,3,4-oxadiazol-2-yl)propyl)sulfamoyl)-2-methoxyphenyl)ethyl acetate] was 960 nM. As for `Cc1ccc(F)c([C@@H](C)[C@H](NS(=O)(=O)c2ccc(Cl)cc2OC(F)F)c2n[nH]c(=O)o2)c1C` [Example 146, 4-chloro-2-(difluoromethoxy)-N-((1S,2R)-2-(6-fluoro-2,3-dimethylphenyl)-1-(5-oxo-4,5-dihydro-1,3,4-oxadiazol-2-yl)propyl)benzenesulfonamide], the IC50 came to 830 nM. The value for `CC(=O)c1cc(Cl)ccc1S(=O)(=O)N[C@H](c1n[nH]c(=O)o1)[C@H](C)c1c(F)ccc(C)c1C` [Example 147, 2-acetyl-4-chloro-N-((1S,2R)-2-(6-fluoro-2,3-dimethylphenyl)-1-(5 oxo-4,5-dihydro-1,3,4-oxadiazol-2-yl)propyl)benzenesulfonamide] was 650 nM. Consider `COc1nc(Cl)ccc1S(=O)(=O)N[C@H](c1n[nH]c(=O)o1)[C@H](C)c1c(F)ccc(C)c1C` [Example 148], for which the IC50 came to 400 nM. With `Cc1ccc(F)c([C@@H](C)[C@H](NS(=O)(=O)c2ccc(Cl)c3cccnc23)c2n[nH]c(=O)o2)c1C` [Example 153, 5-chloro-N-((1S,2R)-2-(6-fluoro-2,3-dimethylphenyl)-1-(5-oxo-4,5-dihydro-1,3,4-oxadiazol-2-yl)propyl)quinoline-8-sulfonamide], the half-inhibitory concentration (IC50) was 910 nM.

Consider `Cc1ccc(F)c([C@@H](C)[C@H](NS(=O)(=O)c2ccc(Cl)c(C(=O)N3CCC4(CC3)COC4)n2)c2n[nH]c(=O)o2)c1C` [Example 156, 5-chloro-N-((1S,2R)-2-(6-fluoro-2,3-dimethylphenyl)-1-(5-oxo-4,5-dihydro-1,3,4-oxadiazol-2-yl)propyl)-6-(2-oxa-7-azaspiro[3.5]nonane-7-carbonyl)pyridine-2-sulfonamide], for which the IC50 was determined as 870 nM.

With `CC(=O)NC1CCOc2c(S(=O)(=O)N[C@H](c3n[nH]c(=O)o3)[C@H](C)c3c(F)ccc(C)c3C)ccc(Cl)c21` (stereo partly drawn) [Example 157, N-(5-chloro-8-(N-((1S,2R)-2-(6-fluoro-2,3-dimethylphenyl)-1-(5-oxo-4,5-dihydro-1,3,4-oxadiazol-2-yl)propyl)sulfamoyl)chroman-4-yl)acetamide], the IC50 was found to be 370 nM. `CC(=O)OC1(C)CCOc2c(S(=O)(=O)N[C@H](c3n[nH]c(=O)o3)[C@H](C)c3c(F)ccc(Br)c3C)ccc(Cl)c21` (stereo partly drawn) [Example 167, 8-(N-((1S,2R)-2-(3-bromo-6-fluoro-2-methylphenyl)-1-(5-oxo-4,5-dihydro-1,3,4-oxadiazol-2-yl)propyl)sulfamoyl)-5-chloro-4-methylchroman-4-yl-acetate]: the IC50 came to 140 nM. For `Cc1ccc(F)c([C@@H](C)[C@H](NS(=O)(=O)c2ccc(F)c(C(C)(C)O)c2F)c2n[nH]c(=O)o2)c1C` [Example 186, 2,4-difluoro-N-((1S,2R)-2-(6-fluoro-2,3-dimethylphenyl)-1-(5-oxo-4,5-dihydro-1,3,4-oxadiazol-2-yl)propyl)-3-(2-hydroxypropan-2-yl)benzenesulfonamide], the IC50 came out at 640 nM. The value for `Cc1ccc(F)c([C@@H](C)[C@H](NS(=O)(=O)c2ccc(Cl)c(C(C)(C)O)n2)c2n[nH]c(=O)o2)c1C` [Example 193, 5-chloro-N-((1S,2R)-2-(6-fluoro-2,3-dimethylphenyl)-1-(5-oxo-4,5-dihydro-1,3,4-oxadiazol-2-yl)propyl)-6-(2-hydroxypropan-2-yl)pyridine-2-sulfonamide] was 110 nM. The result for `Cc1ccc(F)c([C@@H](C)[C@H](NS(=O)(=O)c2cc(C(C)(C)O)c(F)cc2C(N)=O)c2n[nH]c(=O)o2)c1C` [Example 196, 5-fluoro-2-(N-((1S,2R)-2-(6-fluoro-2,3-dimethylphenyl)-1-(5-oxo-4,5-dihydro-1,3,4-oxadiazol-2-yl)propyl)sulfamoyl)-4-(2-hydroxypropan-2-yl)benzamide] reads 320 nM. As to `Cc1ccc(F)c([C@@H](C)[C@H](NS(=O)(=O)c2cc(C(C)(C)O)ccc2C(N)=O)c2n[nH]c(=O)o2)c1C` [Example 197, 2-(N-((1S,2R)-2-(6-fluoro-2,3-dimethylphenyl)-1-(5-oxo-4,5-dihydro-1,3,4-oxadiazol-2-yl)propyl)sulfamoyl)-4-(2-hydroxypropan-2-yl)benzamide], the half-maximal inhibitory concentration (IC50) turned out to be 410 nM. `Cc1ccc(F)c([C@@H](C)[C@H](NS(=O)(=O)c2cc(C(C)(C)O)c(Cl)cc2C(N)=O)c2n[nH]c(=O)o2)c1C` [Example 198, 5-chloro-2-(N-((1S,2R)-2-(6-fluoro-2,3-dimethylphenyl)-1-(5-oxo-4,5-dihydro-1,3,4-oxadiazol-2-yl)propyl)sulfamoyl)-4-(2-hydroxypropan-2-yl)benzamide]: the half-inhibitory concentration (IC50) was 50 nM. As for `COc1c(S(=O)(=O)N[C@H](c2n[nH]c(=O)o2)[C@H](C)c2cccc(C)c2C)ccc(Cl)c1C(C)O` (stereo partly drawn) [Example 203, 4-chloro-N-((1S,2R)-2-(2,3-dimethylphenyl)-1-(5-oxo-4,5-dihydro-1,3,4-oxadiazol-2-yl)propyl)-3-(1-hydroxyethyl)-2-methoxybenzenesulfonamide], the IC50 was found to be 810 nM.

These data come from patent US10889555B2, “Sulfonamide compound or salt thereof” (Taiho Pharmaceutical Co., Ltd., priority 2016, dated 2021).
